In this assay the test system is MTB. Type of assay: cell-based, Mycobacterium tuberculosis.

Like-named read-outs stand apart in the source and are kept apart here.

As to `CCCCCCCCCC(=O)O[C@@H]1[C@H](OC)[C@@H]([C@@H](O[C@H]2OC(C(=O)N[C@H]3CCC[C@@H](C)NC3=O)=C[C@H](O)[C@@H]2O)C(N)=O)O[C@H]1n1ccc(=O)[nH]c1=O` [SQ641], the Frequency of mutation entry is given as “zero” and the Resistant colonies result is given as “no colonies”. Also, the Frequency of mutation result (second experiment, 8 μg/ml SQ641, 1 μg/ml RIF) is “zero”.

Source of the values: US20090281054A1, “COMPOSITIONS AND METHODS COMPRISING CAPURAMYCIN ANALOGUES” (priority 2008, published 2009).
